The text below walks through data of PubChem BioAssay AID624396 (The Scripps Research Institute Molecular Screening Center, 2012).

Values joined by “and” are separate entries in the source; they are usually repeats but may differ in a detail not shown here. Equal values may be shown once.

Common to all, as to test: apoptosis induction in cancer cell lines, late-stage follow-up, mechanism study for MCL1-BIM inhibitor project, imaging, DAPI staining, cell line panel, probe (AID 624396)
The test system of one experiment is 1863 BCL-XL. As to conditions: DAPI nuclear morphology.
For the next experiment, the system named is 1780 MCl1. As to conditions: DAPI nuclear morphology.
Another experiment relates to DHL-6. The following applies: DAPI nuclear morphology.
For another experiment, the system named is NCI-H929. As to conditions: DAPI nuclear morphology.
The test system of a further experiment is DHL-10. As to conditions: DAPI nuclear morphology, single IC50 determination, other campaign.

One may read the IC50 as the concentration at which inhibition is half-maximal. Regarding `CCN1CCN(C(c2ccc(C(F)(F)F)cc2)c2ccc3cccnc3c2O)CC1` (stereo not given), the IC50 with 1863 BCL-XL was 1200 nM and 1100 nM; in the experiment on 1780 MCl1, 700 nM and 300 nM; with DHL-6 it was 2200 nM and 3300 nM; with NCI-H929 it was 3600 nM and 1600 nM; with DHL-10, above 25000 nM.
